Like-named read-outs stand apart in the source and are kept apart here. Where a SMILES comes first, the peptide text is derived from it. [ ]: non-standard residue; d: D form. The star is where a group is joined. Cha = N[C@@H](CC1CCCCC1)C(=O)O; pGlu = O=C1CC[C@@H](C(=O)O)N1; dNle = CCCC[C@@H](N)C(=O)O; dNva = CCC[C@@H](N)C(=O)O; Nle = CCCC[C@H](N)C(=O)O; Aib = CC(C)(N)C(=O)O; Bn = c1ccc(C*)cc1
Columns and labels:
[1] = target: T1, hAPJ (Homo sapiens, UniProt P35414); assay: hAPJ Calcium Flux Assay; type: cell-based
T1 sequence (P35414 1-380): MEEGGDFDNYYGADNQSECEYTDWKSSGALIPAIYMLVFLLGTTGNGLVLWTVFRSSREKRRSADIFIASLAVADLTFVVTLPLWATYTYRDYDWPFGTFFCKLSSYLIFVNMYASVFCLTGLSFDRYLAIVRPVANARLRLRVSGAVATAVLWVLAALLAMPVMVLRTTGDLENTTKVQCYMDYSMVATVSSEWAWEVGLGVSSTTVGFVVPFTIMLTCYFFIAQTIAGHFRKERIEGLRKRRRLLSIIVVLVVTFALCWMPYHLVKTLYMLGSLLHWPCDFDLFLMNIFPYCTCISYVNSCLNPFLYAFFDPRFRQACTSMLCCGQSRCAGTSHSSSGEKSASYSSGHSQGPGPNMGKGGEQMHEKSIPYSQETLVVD
Description: Chem-5 APJ stable cells (Millipore # HTS068C) were plated in 384-well format with 10,000 cells/well in 25 ul growth media, then grown 24 hours in a 37° C. tissue culture incubator. One hour before the assay, 25 ul/well FLIPR Calcium 4 dye (Molecular Devices R8142) with 2.5 mM probenecid was added, and cells were incubated one hour in a 37° C. tissue culture incubator. Peptides were solubilized in HBSS, HEPES & 0.1% BSA buffer, and serially-diluted 10-fold, from 50 uM to […], in triplicate. FLIPR Tetra was used to add peptide to the cells with dye (1:5, for final peptide concentrations ranging from 10 uM to […]). FLIPR dye inside the cells emitted fluorescence after binding to calcium, while fluorescence from outside the cells was masked. Fluorescence was measured using 470-495 excitation and 515-575 emission wavelengths on the FLIPR Tetra. Readings were done for 3 minutes total, beginning 10 seconds before the peptide addition. Maximum-minimum values were calculated and plotted for each peptide concentration, and GraphPad prism software was used to calculate EC50 values at the curve inflection points, for calcium flux stimulation by peptides.

[2] = Surrogate Activity-Based Plasma Stability Assay; type: in vitro ADME; settings: rat
Description: Stability half-life was then calculated by the formula, t½=0.693÷k Surrogate Activity-Based Plasma Stability Assay: […]
2) Calculate slope of value above and […]

[3] = Chem-5 APJ stable cells, FLIPR calcium flux stimulation, read-out: hAPJ Ca^2+ Flux EC50
[4] = Surrogate activity-based Plasma stability t½

EC50 [1, 3]	half-life [2, 4]	SMILES	EC50 [1]	half-life ([2]; read-out: Surrogate activity-based Plasma stability t½)
0.0099 µM	> 16.7 h	CCCC[C@@H](NC(=O)[C@@H]1CCCN1C(=O)CNC(=O)[C@H](CCCCN)NC(=O)[C@H](Cc1c[nH]cn1)NC(=O)[C@@H](C)NC(=O)[C@H](CC(C)C)NC(=O)[C@H](CCCNC(=N)N)NC(=O)[C@@H]1C[C@@H](c2ccccc2)CN1C(=O)[C@H](CCCNC(=N)N)NC(=O)[C@@H]1CCC(=O)N1)C(=O)N[C@H](C)C(=O)N[C@H](Cc1ccccc1)C(=O)O [Example 9, pE-R-(trans-4-PhP)-R-L-a-H-K-G-P-nle-a-f-OH]		
0.0195 µM	> 16.7 h	CCCC[C@@H](NC(=O)[C@@H]1CCCN1C(=O)CNC(=O)[C@H](CCCCN)NC(=O)[C@H](Cc1c[nH]cn1)NC(=O)[C@@H](CCC)NC(=O)[C@H](CC(C)C)NC(=O)[C@H](CCCNC(=N)N)NC(=O)[C@@H]1CCCN1C(=O)[C@H](CCCNC(=N)N)NC(=O)[C@@H]1CCC(=O)N1)C(=O)N[C@H](C)C(=O)N[C@H](Cc1ccccc1)C(=O)O [Example 52, pE-R-P-R-L-nva-H-K-G-P-nle-a-f-OH] ([pGlu]RPRL[dNva]HKGP[dNle][dA][dF]-OH)		
0.099 µM	5.78 h	CCCC[C@H](NC(=O)[C@@H]1CCCN1C(=O)CNC(=O)[C@@H](CCCCN)NC(=O)[C@H](Cc1c[nH]cn1)NC(=O)[C@@H](C)NC(=O)[C@H](CC(C)C)NC(=O)[C@H](CCCNC(=N)N)NC(=O)[C@@H]1CCCN1C(=O)[C@H](CCCNC(=N)N)NC(=O)[C@@H]1CCC(=O)N1)C(=O)N[C@H](C)C(=O)N[C@H](Cc1ccccc1)C(=O)O [Example 31, pE-R-P-R-L-a-H-k-G-P-Nle-a-f-OH]		
0.0028 µM	2.08 h	CCCC[C@@H](NC(=O)[C@@H]1CCCN1C(=O)CNC(=O)[C@H](CCCCN)NC(=O)[C@H](Cc1c[nH]cn1)NC(=O)[C@@H](C)NC(=O)[C@H](CC1CCCCC1)NC(=O)[C@H](CCCNC(=N)N)NC(=O)[C@@H]1CCCN1C(=O)[C@H](CCCNC(=N)N)NC(=O)[C@@H]1CCC(=O)N1)C(=O)N[C@H](C)C(=O)N[C@H](Cc1ccccc1)C(=O)O [Example 23, pE-R-P-R-Cha-a-H-K-G-P-nle-a-f-OH] ([pGlu]RPR[Cha][dA]HKGP[dNle][dA][dF]-OH)		
0.0045 µM	0.703 h	CCCC[C@H](NC(=O)[C@@H]1CCCN1C(=O)CNC(=O)[C@H](CCCCN)NC(=O)C(C)(C)NC(=O)[C@H](CO)NC(=O)[C@H](CC(C)C)NC(=O)[C@H](CCCNC(=N)N)NC(=O)[C@@H]1CCCN1C(=O)[C@H](CCCNC(=N)N)NC(=O)[C@@H]1CCC(=O)N1)C(=O)N1CCC[C@H]1C(=O)N[C@H](Cc1ccccc1)C(=O)O [Example 41, pE-R-P-R-L-S-Aib-K-G-P-Nle-P-f-OH]		
0.0161 µM	4.13 h	CCCC[C@@H](NC(=O)[C@@H]1CCCN1C(=O)CNC(=O)[C@H](CCCCN)NC(=O)[C@@H](C)NC(=O)[C@@H](C)NC(=O)[C@H](CC(C)C)NC(=O)[C@H](CCCNC(=N)N)NC(=O)[C@@H]1CCCN1C(=O)[C@H](CCCNC(=N)N)NC(=O)[C@@H]1CCC(=O)N1)C(=O)N[C@H](C)C(=O)N[C@H](Cc1ccccc1)C(=O)O [Example 48, pE-R-P-R-L-a-a-K-G-P-nle-a-f-OH] ([pGlu]RPRL[dA][dA]KGP[dNle][dA][dF]-OH)		
0.0107 µM	> 16.7 h	CCCC[C@H](NC(=O)[C@@H]1CCCN1C(=O)CNC(=O)[C@H](CCCCN)NC(=O)[C@H](Cc1c[nH]cn1)NC(=O)[C@@H](C)NC(=O)[C@H](CC(C)C)NC(=O)[C@H](CCCNC(=N)N)NC(=O)[C@@H]1CCCN1C(=O)[C@H](CCCNC(=N)N)NC(=O)[C@@H]1CCC(=O)N1)C(=O)N[C@H](Cc1ccccc1)C(=O)O [Example 35, pE-R-P-R-L-a-H-K-G-P-Nle-f-OH]		
		CCCC[C@@H](NC(=O)[C@@H]1CCCN1C(=O)CNC(=O)[C@H](CCCCN)NC(=O)[C@H](Cc1c[nH]cn1)NC(=O)[C@@H](C)NC(=O)[C@H](Cc1ccc(OCc2ccccc2)cc1)NC(=O)[C@H](CCCNC(=N)N)NC(=O)[C@@H]1CCCN1C(=O)[C@H](CCCNC(=N)N)NC(=O)[C@@H]1CCC(=O)N1)C(=O)N[C@H](C)C(=O)N[C@H](Cc1ccccc1)C(=O)O [Example 27, pE-R-P-R-Y(Bzl)-a-H-K-G-P-nle-a-f-OH] ([pGlu]RPRY(Bn)[dA]HKGP[dNle][dA][dF]-OH)	0.121 µM	5.81 h
0.0024 µM	> 16.7 h	CCCC[C@H](NC(=O)[C@@H]1CCCN1C(=O)CNC(=O)[C@H](CCCCN)NC(=O)C(C)(C)NC(=O)[C@H](CO)NC(=O)[C@H](CC(C)C)NC(=O)[C@H](CCCNC(=N)N)NC(=O)[C@@H]1CCCN1C(=O)[C@H](CCCNC(=N)N)NC(=O)[C@@H]1CCC(=O)N1)C(=O)N[C@H](C)C(=O)N[C@@H](Cc1ccccc1)C(=O)O [Example 42, pE-R-P-R-L-S-Aib-K-G-P-Nle-a-F-OH] ([pGlu]RPRLS[Aib]KGP[Nle][dA]F-OH)		
0.0079 µM	> 16.7 h	CCCC[C@@H](NC(=O)[C@@H]1CCCN1C(=O)CNC(=O)[C@H](CCCCN)NC(=O)[C@H](Cc1c[nH]cn1)NC(=O)[C@H](NC(=O)[C@H](CC(C)C)NC(=O)[C@H](CCCNC(=N)N)NC(=O)[C@@H]1CCCN1C(=O)[C@H](CCCNC(=N)N)NC(=O)[C@@H]1CCC(=O)N1)C(C)C)C(=O)N[C@H](C)C(=O)N[C@H](Cc1ccccc1)C(=O)O [Example 61, pE-R-P-R-L-v-H-K-G-P-nle-a-f-OH] ([pGlu]RPRL[dV]HKGP[dNle][dA][dF]-OH)		
0.623 µM	> 16.7 h	CCCC[C@@H](NC(=O)[C@@H]1CCCN1C(=O)CNC(=O)[C@H](CCCCN)NC(=O)[C@H](Cc1c[nH]cn1)NC(=O)[C@@H](C)NC(=O)[C@H](CC(C)C)NC(=O)[C@H](CCCNC(=N)N)NC(=O)[C@@H](C)NC(=O)[C@H](CCCNC(=N)N)NC(=O)[C@@H]1CCC(=O)N1)C(=O)N[C@H](C)C(=O)N[C@H](Cc1ccccc1)C(=O)O [Example 49, pE-R-a-R-L-a-H-K-G-P-nle-a-f-OH] ([pGlu]R[dA]RL[dA]HKGP[dNle][dA][dF]-OH)		
0.0665 µM	2.04 h	CCCC[C@@H](NC(=O)[C@@H]1CCCN1C(=O)CNC(=O)[C@H](CCCCN)NC(=O)[C@H](Cc1c[nH]cn1)NC(=O)[C@@H](C)NC(=O)[C@H](CC(C)C)NC(=O)[C@H](CCCNC(=N)N)NC(=O)[C@@H]1CCCN1C(=O)[C@H](CCCNC(=N)N)NC(=O)[C@@H]1CCC(=O)N1)C(=O)N[C@@H](Cc1ccccc1)C(=O)O [Example 18, pE-R-P-R-L-a-H-K-G-P-nle-F-OH] ([pGlu]RPRL[dA]HKGP[dNle]F-OH)		
0.0085 µM	> 16.7 h	CCCC[C@@H](NC(=O)[C@@H]1CCCN1C(=O)CNC(=O)[C@H](CCCCN)NC(=O)[C@@H](C)NC(=O)[C@H](CO)NC(=O)[C@H](CC(C)C)NC(=O)[C@H](CCCNC(=N)N)NC(=O)[C@@H]1CCCN1C(=O)[C@H](CCCNC(=N)N)NC(=O)[C@@H]1CCC(=O)N1)C(=O)N[C@H](C)C(=O)N[C@H](Cc1ccccc1)C(=O)O [Example 51, pE-R-P-R-L-S-a-K-G-P-nle-a-f-OH] ([pGlu]RPRLS[dA]KGP[dNle][dA][dF]-OH)		
0.0077 µM	> 16.7 h	CCCC[C@@H](NC(=O)[C@@H]1CCCN1C(=O)CNC(=O)[C@H](CCCCN)NC(=O)[C@H](Cc1c[nH]cn1)NC(=O)[C@@H](CC(=O)O)NC(=O)[C@H](CC(C)C)NC(=O)[C@H](CCCNC(=N)N)NC(=O)[C@@H]1CCCN1C(=O)[C@H](CCCNC(=N)N)NC(=O)[C@@H]1CCC(=O)N1)C(=O)N[C@H](C)C(=O)N[C@H](Cc1ccccc1)C(=O)O [Example 8, pE-R-P-R-L-d-H-K-G-P-nle-a-f-OH] ([pGlu]RPRL[dD]HKGP[dNle][dA][dF]-OH)		
0.0009 µM	> 16.7 h	CCCC[C@@H](NC(=O)[C@@H]1CCCN1C(=O)CNC(=O)[C@H](CCCCN)NC(=O)[C@H](Cc1c[nH]cn1)NC(=O)[C@@H](C)NC(=O)[C@H](CC(C)C)NC(=O)[C@H](CCCNC(=N)N)NC(=O)[C@@H]1CCCN1C(=O)[C@H](CCCNC(=N)N)NC(=O)[C@@H]1CCC(=O)N1)C(=O)N[C@H](C)C(=O)N[C@H](Cc1ccc(O)cc1)C(=O)O [Example 21, pE-R-P-R-L-a-H-K-G-P-nle-a-y-OH] ([pGlu]RPRL[dA]HKGP[dNle][dA][dY]-OH)		
0.0551 µM	3.8 h	CCCC[C@@H](NC(=O)[C@@H]1CCCN1C(=O)CNC(=O)[C@H](CCCCN)NC(=O)[C@@H](Cc1c[nH]cn1)NC(=O)[C@H](C)NC(=O)[C@H](CC(C)C)NC(=O)[C@H](CCCNC(=N)N)NC(=O)[C@@H]1CCCN1C(=O)[C@H](CCCNC(=N)N)NC(=O)[C@@H]1CCC(=O)N1)C(=O)N[C@H](C)C(=O)N[C@H](Cc1ccccc1)C(=O)O [Example 58, pE-R-P-R-L-A-h-K-G-P-nle-a-f-OH]		

Source: US8921307B2, “Synthetic linear apelin mimetics for the treatment of heart failure” (priority 2012, dated 2014)
